For 36 compounds, Ki results are on record in patent publication EP2934149B1, “C6-AZASPIRO IMINOTHIADIAZINE DIOXIDES AS BACE INHIBITORS” (Merck Sharp & Dohme Corp., priority 2012, dated 2014).

For orientation: Ki means the equilibrium dissociation constant of an inhibitor or competing ligand from its target.

Experiment [1] has as its target soluble human BACE1 catalytic domain (Homo sapiens, UniProt P56817). In words: BACE1 HTRF FRET Assay. The experiment is classed as biochemical. Conditions: Ki calculated from IC50 using the Cheng-Prusoff equation; QSY7-APPswe-Eu substrate 200 nM final, pH 5.0, 30° C. The protocol:
A homogeneous time-resolved FRET assay can be used to determine IC50 values for inhibitors of the soluble human BACE1 catalytic domain. […] This substrate contains an N-terminal QSY7 moiety that serves as a quencher of the C-terminal Europium fluorophore (620nm Em). […] Inhibition of BACE1 cleavage of the QSY7-APP^swe-Eu substrate by inhibitors is manifested as a suppression of 620 nm fluorescence. […] The reactions are incubated at 30° C for 1.5 hours. The 620nm fluorescence is then read on a Rubystar HTRF plate reader (BMG Labtechnologies) using a 50 millisecond delay followed by a 400 millisecond acquisition time window. Inhibitor IC50 values are derived from non-linear regression analysis of concentration response curves.

In experiment [2] the target is T1, purified human autoBACE-2 (Homo sapiens, UniProt Q9Y5Z0).
T1 sequence (Q9Y5Z0 63-473 limits assumed): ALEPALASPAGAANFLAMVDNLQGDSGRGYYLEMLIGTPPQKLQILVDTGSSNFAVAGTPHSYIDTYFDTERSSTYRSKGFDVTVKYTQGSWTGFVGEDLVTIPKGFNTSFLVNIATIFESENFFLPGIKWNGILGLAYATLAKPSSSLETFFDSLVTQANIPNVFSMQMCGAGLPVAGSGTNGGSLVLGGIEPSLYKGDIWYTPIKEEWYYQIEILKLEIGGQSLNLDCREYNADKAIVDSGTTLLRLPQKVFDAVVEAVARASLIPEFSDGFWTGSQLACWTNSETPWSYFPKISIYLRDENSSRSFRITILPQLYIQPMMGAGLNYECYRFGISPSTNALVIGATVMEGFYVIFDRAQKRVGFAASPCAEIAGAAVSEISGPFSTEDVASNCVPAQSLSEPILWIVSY
In words: BACE-2 Assay (BACE-HTRF assay). Format: biochemical. The conditions noted are these: Ki calculated from IC50 using the Cheng-Prusoff equation; QSY7-EISEVNLDAEFC-Eu-amide substrate 200 nM final, pH 5.0, 30°C; read-out: BACE2 Ki. As to the method:
Inhibitor IC50's at purified human autoBACE-2 are determined in a time-resolved endpoint proteolysis assay that measures hydrolysis of the QSY7-[…]-Eu-amide FRET peptide substrate (BACE-HTRF assay). […] Inhibitor compounds, prepared at 3x the desired final concentration in 1x BACE assay buffer (20 mM sodium acetate pH 5.0,10% glycerol, 0.1% Brij-35) supplemented with 7.5% DMSO are pre-incubated with an equal volume of autoBACE-2 enzyme diluted in 1x BACE assay buffer (final enzyme concentration 1 nM) in black 384-well NUNC plates for 30 minutes at 30°C. […] DMSO is present at 5% final concentration in the assay. Following laser excitation of sample wells at 320 nm, the fluorescence signal at 620 nm is collected for 400 ms following a 50 µs delay on a RUBYstar HTRF plate reader (BMG Labtechnologies). Raw RFU data is normalized to maximum (1.0 nM BACE/DMSO) and minimum (no enzyme/DMSO) RFU values. […] The Ki values are calculated from the IC50 using the Cheng-Prusoff equation.

Chain of soluble human BACE1 catalytic domain (P56817 75-416 limits assumed): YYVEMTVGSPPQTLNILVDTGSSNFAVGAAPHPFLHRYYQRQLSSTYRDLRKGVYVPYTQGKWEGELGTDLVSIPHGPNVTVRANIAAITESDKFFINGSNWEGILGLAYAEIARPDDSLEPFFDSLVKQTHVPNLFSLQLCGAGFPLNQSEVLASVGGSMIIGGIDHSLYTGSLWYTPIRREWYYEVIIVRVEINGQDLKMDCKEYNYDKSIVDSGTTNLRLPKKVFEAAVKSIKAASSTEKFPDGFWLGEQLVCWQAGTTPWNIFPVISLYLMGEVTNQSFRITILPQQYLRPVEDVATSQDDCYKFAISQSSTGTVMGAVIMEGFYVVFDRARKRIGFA

As for `COC1CC(CN2CC[C@]3(C2)[C@@](C)(c2cc(NC(=O)c4ccc(F)cn4)ccc2F)NC(=N)N(C)S3(=O)=O)C1` (stereo partly drawn) [Example 44], the figures for the Ki in experiment [1] and in experiment [2] were 120 nM and 52 nM, respectively.

Consider `CN1C(=N)N[C@](C)(c2cc(NC(=O)c3ccc(F)cn3)ccc2F)[C@@]2(CCN(Cc3ccccn3)C2)S1(=O)=O` [Example 45], for which the Ki is 33 nM in experiment [1] and 23 nM in experiment [2].

Take `CN1C(=N)N[C@](C)(c2cc(NC(=O)c3ccc(F)cn3)ccc2F)[C@@]2(CCN(Cc3cccnc3)C2)S1(=O)=O` [Example 46]: the Ki in experiment [1] is 54 nM; in experiment [2], 40 nM.

As for `CN1C(=N)N[C@](C)(c2cc(NC(=O)c3ccc(F)cn3)ccc2F)[C@@]2(CCN(CC3CC3)C2)S1(=O)=O` [Example 47], the Ki is 58 nM in experiment [1] and 51 nM in experiment [2].

`CN1C(=N)N[C@](C)(c2cc(NC(=O)c3ccc(F)cn3)ccc2F)[C@@]2(CCN(Cc3cocn3)C2)S1(=O)=O` [Example 49]: the Ki is 33 nM in experiment [1] and 21 nM in experiment [2].

Regarding `CN1C(=N)N[C@](C)(c2cc(NC(=O)c3ccc(F)cn3)ccc2F)[C@@]2(CCN(Cc3cncnc3)C2)S1(=O)=O` [Example 50], the Ki was 70 nM in experiment [1] and 77 nM in experiment [2].

As to `CN1C(=N)N[C@](C)(c2cc(NC(=O)c3ccc(F)cn3)ccc2F)[C@@]2(CCN(Cc3cnn(C)c3)C2)S1(=O)=O` [Example 51], the Ki in experiment [1] is 151 nM; in experiment [2], 184 nM.

On to `CCCCN1CC[C@]2(C1)[C@@](C)(c1cc(NC(=O)c3ccc(F)cn3)ccc1F)NC(=N)N(C)S2(=O)=O` [Example 52], for which the Ki in experiment [1] is 73 nM; in experiment [2], 61 nM.

Take `CN1C(=N)N[C@](C)(c2cc(NC(=O)c3ccc(F)cn3)ccc2F)[C@@]2(CCN(Cc3ccncc3)C2)S1(=O)=O` [Example 53]: the inhibition constant Ki is 84 nM in experiment [1] and 61 nM in experiment [2].

Turning to `CN1C(=N)N[C@](C)(c2cc(NC(=O)c3ccc(F)cn3)ccc2F)[C@@]2(CCN(Cc3cnco3)C2)S1(=O)=O` [Example 54], the figures for the inhibition constant Ki in experiment [1] and in experiment [2] were 54 nM and 74 nM, respectively.

Regarding `COc1ccc(C(=O)Nc2ccc(F)c([C@@]3(C)NC(=N)N(C)S(=O)(=O)[C@@]34CCN(S(C)(=O)=O)C4)c2)nc1` [Example 55], the figures for the Ki in experiment [1] and in experiment [2] were 3 nM and 10 nM, respectively.

With `CCS(=O)(=O)N1CC[C@@]2(C1)[C@@](C)(c1cc(NC(=O)c3ccc(OC)cn3)ccc1F)NC(=N)N(C)S2(=O)=O` [Example 56], the figures for the Ki in experiment [1] and in experiment [2] were 1 nM and 6 nM, respectively.

For the compound `COc1ccc(C(=O)Nc2ccc(F)c([C@@]3(C)NC(=N)N(C)S(=O)(=O)[C@@]34CCN(S(=O)(=O)CC(C)C)C4)c2)nc1` [Example 57], the Ki was 1 nM in experiment [1] and 5 nM in experiment [2].

`COc1ccc(C(=O)Nc2ccc(F)c([C@@]3(C)NC(=N)N(C)S(=O)(=O)[C@@]34CCN(S(=O)(=O)c3ccc(F)cc3)C4)c2)nc1` [Example 58]: the figures for the Ki in experiment [1] and in experiment [2] were 3 nM and 20 nM, respectively.

Consider `COc1ccc(C(=O)Nc2ccc(F)c([C@@]3(C)NC(=N)N(C)S(=O)(=O)[C@@]34CCN(S(=O)(=O)c3ccccc3)C4)c2)nc1` [Example 59], for which the Ki in experiment [1] was 3 nM; in experiment [2], 16 nM.

On to `COc1ccc(C(=O)Nc2ccc(F)c([C@@]3(C)NC(=N)N(C)S(=O)(=O)[C@@]34CCN(S(=O)(=O)C3CC3)C4)c2)nc1` [Example 60], for which the inhibitory constant (Ki) in experiment [1] was 1 nM; in experiment [2], 4 nM.

For `COc1ccc(C(=O)Nc2ccc(F)c([C@@]3(C)NC(=N)N(C)S(=O)(=O)[C@@]34CCN(S(=O)(=O)c3cn(C)cn3)C4)c2)nc1` [Example 61], the figures for the Ki in experiment [1] and in experiment [2] were 6 nM and 38 nM, respectively.

With `COc1ccc(C(=O)Nc2ccc(F)c([C@@]3(C)NC(=N)N(C)S(=O)(=O)[C@@]34CCN(S(=O)(=O)CC3CCCO3)C4)c2)nc1` (stereo partly drawn) [Example 62], the Ki is 3 nM in experiment [1] and 19 nM in experiment [2].

Regarding `COc1ccc(C(=O)Nc2ccc(F)c([C@@]3(C)NC(=N)N(C)S(=O)(=O)[C@]34CCN(S(=O)(=O)c3ccccc3)C4)c2)nc1` [Example 63], the Ki was 12 nM in experiment [1] and 24 nM in experiment [2].

Turning to `COc1ccc(C(=O)Nc2ccc(F)c([C@@]3(C)NC(=N)N(C)S(=O)(=O)[C@]34CCN(S(=O)(=O)C3CC3)C4)c2)nc1` [Example 64], the Ki was 40 nM in experiment [1] and 140 nM in experiment [2].

For the compound `COc1ccc(C(=O)Nc2ccc(F)c([C@@]3(C)NC(=N)N(C)S(=O)(=O)[C@]34CCN(S(=O)(=O)c3cn(C)cn3)C4)c2)nc1` [Example 65], the results for the Ki in experiment [1] and in experiment [2] were 29 nM and 68 nM, respectively.

For `COc1ccc(C(=O)Nc2ccc(F)c([C@@]3(C)NC(=N)N(C)S(=O)(=O)[C@]34CCN(S(=O)(=O)CC3CCCO3)C4)c2)nc1` (stereo partly drawn) [Example 66], the Ki is 32 nM in experiment [1] and 87 nM in experiment [2].

On to `COc1ccc(C(=O)Nc2ccc(F)c([C@@]3(C)NC(=N)N(C)S(=O)(=O)[C@]34CCN(S(=O)(=O)c3cn[nH]c3)C4)c2)nc1` [Example 67], for which the Ki in experiment [1] is 20 nM; in experiment [2], 40 nM.

For `COc1ccc(C(=O)Nc2ccc(F)c([C@@]3(C)NC(=N)N(C)S(=O)(=O)[C@]34CCN(S(C)(=O)=O)C4)c2)nc1` [Example 68], the results for the Ki in experiment [1] and in experiment [2] were 35 nM and 205 nM, respectively.

In the case of `CCS(=O)(=O)N1CC[C@]2(C1)[C@@](C)(c1cc(NC(=O)c3ccc(OC)cn3)ccc1F)NC(=N)N(C)S2(=O)=O` [Example 69], the Ki in experiment [1] was 33 nM; in experiment [2], 157 nM.

With `COc1ccc(C(=O)Nc2ccc(F)c([C@@]3(C)NC(=N)N(C)S(=O)(=O)[C@]34CCN(S(=O)(=O)CC(C)C)C4)c2)nc1` [Example 70], the Ki in experiment [1] is 37 nM; in experiment [2], 100 nM.

Turning to `COc1ccc(C(=O)Nc2ccc(F)c([C@@]3(C)NC(=N)N(C)S(=O)(=O)[C@]34CCN(S(=O)(=O)c3ccc(F)cc3)C4)c2)nc1` [Example 71], the Ki in experiment [1] was 24 nM; in experiment [2] it was 30 nM.

`COc1ccc(C(=O)Nc2ccc(F)c([C@@]3(C)NC(=N)N(C)S(=O)(=O)[C@]34CCN(S(=O)(=O)CC(F)(F)F)C4)c2)nc1` [Example 72]: the Ki in experiment [1] was 28 nM; in experiment [2], 99 nM.

For `CN1C(=N)N[C@](C)(c2cc(NC(=O)c3ccc(F)cn3)ccc2F)[C@]2(CCN(S(=O)(=O)c3ccc(F)cc3)C2)S1(=O)=O` [Example 73], the Ki is 3 nM in experiment [1] and 10 nM in experiment [2].

For the compound `CN1C(=N)N[C@](C)(c2cc(NC(=O)c3ccc(F)cn3)ccc2F)[C@]2(CCN(S(=O)(=O)CC(F)(F)F)C2)S1(=O)=O` [Example 74], the Ki in experiment [1] is 2 nM; in experiment [2], 4 nM.

Consider `CN1C(=N)N[C@](C)(c2cc(NC(=O)c3ccc(F)cn3)ccc2F)[C@]2(CCN(S(C)(=O)=O)C2)S1(=O)=O` [Example 75], for which the Ki in experiment [1] is 4 nM; in experiment [2], 7 nM.

On to `CCS(=O)(=O)N1CC[C@@]2(C1)[C@@](C)(c1cc(NC(=O)c3ccc(F)cn3)ccc1F)NC(=N)N(C)S2(=O)=O` [Example 76], for which the Ki was 2 nM in experiment [1] and 4 nM in experiment [2].

As to `CC(C)CS(=O)(=O)N1CC[C@@]2(C1)[C@@](C)(c1cc(NC(=O)c3ccc(F)cn3)ccc1F)NC(=N)N(C)S2(=O)=O` [Example 77], the Ki in experiment [1] is 2 nM; in experiment [2], 3 nM.

Consider `CN1C(=N)N[C@](C)(c2cc(NC(=O)c3ccc(F)cn3)ccc2F)[C@]2(CCN(S(=O)(=O)c3ccccc3)C2)S1(=O)=O` [Example 78], for which the values for the Ki in experiment [1] and in experiment [2] were 2 nM and 7 nM, respectively.

Regarding `CN1C(=N)N[C@](C)(c2cc(NC(=O)c3ccc(F)cn3)ccc2F)[C@]2(CCN(S(=O)(=O)C3CC3)C2)S1(=O)=O` [Example 79], the Ki was 1 nM in experiment [1] and 2 nM in experiment [2].

Turning to `CN1C(=N)N[C@](C)(c2cc(NC(=O)c3ccc(F)cn3)ccc2F)[C@]2(CCN(S(=O)(=O)Cc3cccnc3)C2)S1(=O)=O` [Example 80], the figures for the Ki in experiment [1] and in experiment [2] were 2 nM and 5 nM, respectively.
